Test results as given in PMC11110756 (RSC Advances, 2024).
Where two headings read alike, the source gives them in different places.

Assays:
A549 [1] = test: MTT assay, antiproliferative activity on lung cancer A549; assay type: cell-based, human; details: for cytotoxicity level in words, A549: text grading
Caco-2 = test: MTT assay, antiproliferative activity on colorectal cancer Caco-2; assay type: cell-based, human; details: for cytotoxicity level in words, Caco-2: text grading; for SI (CaCo-2): selectivity index WI38 vs CaCo-2
WI38 = test: MTT assay, cytotoxicity on normal lung fibroblast WI38; assay type: cell-based, human; details: read-out: IC50 WI38
A549 [2] = details: read-out: IC50 A549; reference drug; cited from earlier work
[3] = Homo sapiens, A549, read-out: IC50 A549
[4] = Homo sapiens, Caco-2, read-out: IC50 CaCo-2

| SMILES | IC50 (A549 [1]; [3]) [µM] | IC50 (Caco-2; [4]) [µM] | IC50 (A549 [1]; read-out: IC50 A549, MTT, lung cancer A549) [µM] | IC50 (Caco-2; read-out: IC50 CaCo-2, MTT, colorectal cancer Caco-2) [µM] | cytotoxicity level in words, Caco-2 (Caco-2; MTT) | SI (CaCo-2) (Caco-2) | IC50 (WI38; Homo sapiens, WI-38, 72 h) [µM] | cytotoxicity level in words, A549 (A549 [1]; MTT) | IC50 (WI38; MTT, normal lung fibroblast WI38, 72 h) [µM] | IC50 (A549 [2]) [µM] |
| --- | --- | --- | --- | --- | --- | --- | --- | --- | --- | --- |
| CCOC(=O)Cn1cc(COc2ccccc2-c2nc(-c3ccccc3)no2)nn1 [Compound 5a, Ethyl 2-(4-((2-(3-phenyl-1,2,4-oxadiazol-5-yl)phenoxy)methyl)-1H-1,2,3-triazol-1-yl)acetate] | 7.4 | 26.3 | – | – | moderate | 0.54 | 14.3 | – | – | – |
| CCOC(=O)Cn1cc(COc2ccccc2-c2nc(Cc3ccccc3)no2)nn1 [Compound 5b, Ethyl 2-(4-((2-(3-benzyl-1,2,4-oxadiazol-5-yl)phenoxy)methyl)-1H-1,2,3-triazol-1-yl)acetate] | 10.5 | 47.7 | – | – | moderate | 0.41 | 19.5 | – | – | – |
| NC(=O)Cn1cc(COc2ccccc2-c2nc(-c3ccccc3)no2)nn1 [Compound 6a, 2-(4-((2-(3-Phenyl-1,2,4-oxadiazol-5-yl)phenoxy)methyl)-1H-1,2,3-triazol-1-yl)acetamide] | 12.7 | 14.1 | – | – | – | 2.11 | 29.8 | – | – | – |
| NC(=O)Cn1cc(COc2ccccc2-c2nc(Cc3ccccc3)no2)nn1 [Compound 6b, 2-(4-((2-(3-Benzyl-1,2,4-oxadiazol-5-yl)phenoxy)methyl)-1H-1,2,3-triazol-1-yl)acetamide] | 3.56 | 11.5 | – | – | – | 1.38 | 15.9 | – | – | – |
| O=C(O)Cn1cc(COc2ccccc2-c2nc(-c3ccccc3)no2)nn1 [Compound 7a, 2-(4-((2-(3-Phenyl-1,2,4-oxadiazol-5-yl)phenoxy)methyl)-1H-1,2,3-triazol-1-yl)acetic acid] | 210 | 98.1 | – | – | weak to inactive | 0.23 | 22.4 | weak to inactive | – | – |
| O=C(O)Cn1cc(COc2ccccc2-c2nc(Cc3ccccc3)no2)nn1 [Compound 7b, 2-(4-((2-(3-Benzyl-1,2,4-oxadiazol-5-yl)phenoxy)methyl)-1H-1,2,3-triazol-1-yl)acetic acid] | 86 | 173 | – | – | weak to inactive | 0.48 | 83.8 | weak to inactive | – | – |
| COc1cccc2c1C(=O)c1c(O)c3c(c(O)c1C2=O)C[C@@](O)(C(=O)CO)C[C@@H]3O[C@H]1C[C@H](N)[C@H](O)[C@H](C)O1 [Doxorubicin, reference compound] | 1 | 1.3 | – | – | – | 3.32 | 4.32 | – | – | – |
| COc1cc([C@@H]2c3cc4c(cc3[C@@H](O[C@@H]3O[C@@H]5CO[C@@H](C)O[C@H]5[C@H](O)[C@H]3O)[C@H]3COC(=O)[C@H]23)OCO4)cc(OC)c1O [etoposide] | – | – | – | – | – | – | – | – | – | 3.08 |

Second part, led by results:

| IC50 (A549 [1]; [3]) [µM] | IC50 (Caco-2; [4]) [µM] | IC50 (A549 [1]; read-out: IC50 A549, MTT, lung cancer A549) [µM] | IC50 (Caco-2; read-out: IC50 CaCo-2, MTT, colorectal cancer Caco-2) [µM] | SMILES | cytotoxicity level in words, Caco-2 (Caco-2; MTT) | SI (CaCo-2) (Caco-2) | IC50 (WI38; Homo sapiens, WI-38, 72 h) [µM] | cytotoxicity level in words, A549 (A549 [1]; MTT) | IC50 (WI38; MTT, normal lung fibroblast WI38, 72 h) [µM] | IC50 (A549 [2]) [µM] |
| --- | --- | --- | --- | --- | --- | --- | --- | --- | --- | --- |
| 13.1 | 12.9 | – | – | NNC(=O)Cn1cc(COc2ccccc2-c2nc(-c3ccccc3)no2)nn1 [Compound 8a, 2-(4-((2-(3-Phenyl-1,2,4-oxadiazol-5-yl)phenoxy)methyl)-1H-1,2,3-triazol-1-yl)acetohydrazide] | – | 2.38 | 30.6 | – | – | – |
| 4.27 | 4.44 | – | – | NNC(=O)Cn1cc(COc2ccccc2-c2nc(Cc3ccccc3)no2)nn1 [Compound 8b, 2-(4-((2-(3-Benzyl-1,2,4-oxadiazol-5-yl)phenoxy)methyl)-1H-1,2,3-triazol-1-yl)acetohydrazide] | – | 0.81 | 3.6 | – | – | – |
| 6.52 | 3.37 | – | – | O=C(Cn1cc(COc2ccccc2-c2nc(-c3ccccc3)no2)nn1)NN=Cc1ccccc1O [Compound 9a, N′-(2-Hydroxybenzylidene)-2-(4-((2-(3-phenyl-1,2,4-oxadiazol-5-yl)phenoxy)methyl)-1H-1,2,3-triazol-1-yl)acetohydrazide] | – | 1.81 | 6.1 | – | – | – |
| 2.51 | 2.89 | – | – | O=C(Cn1cc(COc2ccccc2-c2nc(Cc3ccccc3)no2)nn1)NN=Cc1ccccc1O [Compound 9b, 2-(4-((2-(3-Benzyl-1,2,4-oxadiazol-5-yl)phenoxy)methyl)-1H-1,2,3-triazol-1-yl)-N'-(2-hydroxybenzylidene)acetohydrazide] | – | 0.73 | 2.12 | – | – | – |
| – | – | 29.5 | 26.7 | Cc1c(O)ncc(COP(=O)([O-])O)c1C=NNC(=O)Cn1cc(COc2ccccc2-c2nc(-c3ccccc3)no2)nn1.[Na+] [Compound 10a, Sodium-(6-hydroxy-5-methyl-4-((2-(2-(4-((2-(3-phenyl-1,2,4-oxadiazol-5-yl)phenoxy)methyl)-1H-1,2,3-triazol-1-yl)acetyl)hydrazonol)methyl)pyridin-3-yl)methyl hydrogen phosphate] | moderate | 0.34 | – | moderate | 9.02 | – |
| 37.3 | 44.5 | – | – | Cc1c(O)ncc(COP(=O)([O-])O)c1C=NNC(=O)Cn1cc(COc2ccccc2-c2nc(Cc3ccccc3)no2)nn1.[Na+] [Compound 10b, Sodium-(4-((2-(2-(4-((2-(3-benzyl-1,2,4-oxadiazol-5-yl)phenoxy)methyl)-1H-1,2,3-triazol-1-yl)acetyl)hydrazineylidene)methyl)-6-hydroxy-5-methylpyridin-3-yl)methyl hydrogen phosphate] | moderate | 0.74 | 32.8 | moderate | – | – |
| 12.4 | 32.2 | – | – | O=C(Cn1cc(COc2ccccc2-c2nc(-c3ccccc3)no2)nn1)NNC(=S)Nc1ccccc1 [Compound 11a, N-Phenyl-2-(2-(4-((2-(3-phenyl-1,2,4-oxadiazol-5-yl)phenoxy)methyl)-1H-1,2,3-triazol-1-yl)acetyl)hydrazine-1-carbothioamide] | moderate | 0.67 | 21.6 | – | – | – |
| 10.3 | 16.4 | – | – | O=C(Cn1cc(COc2ccccc2-c2nc(Cc3ccccc3)no2)nn1)NNC(=S)Nc1ccccc1 [Compound 11b, 2-(2-(4-((2-(3-Benzyl-1,2,4-oxadiazol-5-yl)phenoxy)methyl)-1H-1,2,3-triazol-1-yl)acetyl)-N-phenylhydrazine-1-carbothioamide] | – | 2.08 | 34 | – | – | – |
